The source made the active and inactive calls. The calls are words filed in the database; no cut-off is given here. Bridge positions count the residues as written; N and C are the ends. Square brackets hold non-standard residues; d marks the D form. Peptide text beside a SMILES is read from it. NMeF = CN[C@@H](Cc1ccccc1)C(=O)O; dDab = NCC[C@@H](N)C(=O)O
Assays:
Mus musculus [1] = test: Antinociceptive activity against Kunming mouse model of thermal-induced nociception assessed as peripheral analgesia administered subcutaneously by tail-flick test; type: functional; details: sc
Mus musculus [2] = test: Antinociceptive activity against Kunming mouse model of thermal-induced nociception assessed as maximum possible effect at 8681 nmol/kg, po measured after 30 min by tail flick test relative to control; type: functional; details: 0.5 h
Mu-type opioid receptor = Mu-type opioid receptor (Homo sapiens, UniProt P35372)
Mus musculus [3] = test: Antinociceptive activity against Kunming mouse model of thermal-induced nociception assessed as duration of analgesic effect administered subcutaneously by tail-flick test; type: functional
Mus musculus [4] = test: Antinociceptive activity against Kunming mouse model of thermal-induced nociception assessed as maximum possible effect at 8681 nmol/kg, po measured after 20 min by tail flick test relative to control; type: functional
[5] = biological target: T1, Delta-type opioid receptor (Homo sapiens, UniProt P41143); test: Agonist activity at DOR (unknown origin) expressed in HEK293-A cells assessed as inhibition of forskolin-induced cAMP accumulation preincubated for 30 mins in presence of 3-isobutyl-1-methylxanthine followed by forskolin and compound addition by competitive PKA binding assay; type: functional, cell-based
[6] = Metabolic stability in mouse plasma assessed as degradation half life at 0.01 M measured up to 360 mins; type: ADME, cell-free
Mus musculus [7] = test: Antinociceptive activity in Kunming mouse assessed as analgesic tolerance administered subcutaneously once daily for 8 days by tail flick test; type: functional, organism-based; details: time 8.0 day
Mus musculus [8] = test: Antinociceptive activity against Kunming mouse model of thermal-induced nociception assessed as maximum possible effect at 8681 nmol/kg, po measured after 60 min by tail flick test relative to control; type: functional; details: 1 h
[9] = biological target: T1, Delta-type opioid receptor; test: (§1) Agonist activity at DOR (unknown origin) expressed in HEK293-A cells assessed as inhibition of forskolin-induced cAMP accumulation preincubated for 30 mins in presence of 3-isobutyl-1-methylxanthine followed by forskolin and compound addition by competitive PKA binding assay relative to control; type: functional, cell-based
[10] = biological target: T2, Neuropeptide FF receptor 2 (Homo sapiens, UniProt Q9Y5X5); test: as §1, with “NPFF2R” for “DOR”, “accumulation by measuring maximal efficacy” for “accumulation”; type: functional, cell-based; details: filed as agonist
[11] = biological target: T3, Neuropeptide FF receptor 1 (Homo sapiens, UniProt Q9GZQ6); test: Agonist activity at NPFF1R (unknown origin) expressed in HEK293-A cells assessed as inhibition of forskolin-induced cAMP accumulation preincubated for 30 mins in presence of 3-isobutyl-1-methylxanthine followed by forskolin and compound addition by competitive PKA binding assay; type: functional, cell-based
[12] = biological target: T2, Neuropeptide FF receptor 2; test: Agonist activity at NPFF2R (unknown origin) expressed in HEK293-A cells assessed as inhibition of forskolin-induced cAMP accumulation preincubated for 30 mins in presence of 3-isobutyl-1-methylxanthine followed by forskolin and compound addition by competitive PKA binding assay; type: functional, cell-based; details: read-out: EC50
[13] = biological target: T3, Neuropeptide FF receptor 1; test: as §1, with “NPFF1R” for “DOR”, “accumulation by measuring maximal efficacy” for “accumulation”; type: functional, cell-based; details: filed as agonist
[14] = biological target: Kappa-type opioid receptor (Homo sapiens, UniProt P41145); type: functional, cell-based, HEK293-A
Mus musculus [15] = test: Antinociceptive activity against Kunming mouse model of thermal-induced nociception assessed as maximum possible effect at 89 nmol/kg, po measured after 20 min by tail flick test relative to control; type: functional
Mus musculus [16] = test: Antinociceptive activity against Kunming mouse model of thermal-induced nociception assessed as maximum possible effect at 89 nmol/kg, po measured after 60 min by tail flick test relative to control; type: functional; details: 1 h
Mus musculus [17] = test: Potency index, ratio of test compound ED50 to DN-9 ED50 for antinociceptive activity against Kunming mouse model of thermal-induced nociception assessed as peripheral analgesia administered subcutaneously by tail-flick test; type: functional
Mus musculus [18] = test: Antinociceptive activity against Kunming mouse model of thermal-induced nociception assessed as maximum possible effect at 89 nmol/kg, po measured after 30 min by tail flick test relative to control; type: functional; details: 0.5 h

T2 sequence (Q9Y5X5 whole entry): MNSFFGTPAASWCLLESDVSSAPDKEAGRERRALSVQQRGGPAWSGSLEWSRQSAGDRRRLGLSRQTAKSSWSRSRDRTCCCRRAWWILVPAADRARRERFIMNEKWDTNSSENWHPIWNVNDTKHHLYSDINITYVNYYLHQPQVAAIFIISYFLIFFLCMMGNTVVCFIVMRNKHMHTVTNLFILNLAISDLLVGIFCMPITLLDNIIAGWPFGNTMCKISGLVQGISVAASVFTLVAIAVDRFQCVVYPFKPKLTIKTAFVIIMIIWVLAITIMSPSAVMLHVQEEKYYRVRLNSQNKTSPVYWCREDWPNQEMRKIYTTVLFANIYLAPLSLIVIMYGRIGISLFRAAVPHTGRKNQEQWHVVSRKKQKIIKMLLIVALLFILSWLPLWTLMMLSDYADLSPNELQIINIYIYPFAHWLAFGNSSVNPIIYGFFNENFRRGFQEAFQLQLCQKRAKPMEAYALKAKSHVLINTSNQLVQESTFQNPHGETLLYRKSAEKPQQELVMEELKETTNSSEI
Chain of Mu-type opioid receptor (P35372 whole entry): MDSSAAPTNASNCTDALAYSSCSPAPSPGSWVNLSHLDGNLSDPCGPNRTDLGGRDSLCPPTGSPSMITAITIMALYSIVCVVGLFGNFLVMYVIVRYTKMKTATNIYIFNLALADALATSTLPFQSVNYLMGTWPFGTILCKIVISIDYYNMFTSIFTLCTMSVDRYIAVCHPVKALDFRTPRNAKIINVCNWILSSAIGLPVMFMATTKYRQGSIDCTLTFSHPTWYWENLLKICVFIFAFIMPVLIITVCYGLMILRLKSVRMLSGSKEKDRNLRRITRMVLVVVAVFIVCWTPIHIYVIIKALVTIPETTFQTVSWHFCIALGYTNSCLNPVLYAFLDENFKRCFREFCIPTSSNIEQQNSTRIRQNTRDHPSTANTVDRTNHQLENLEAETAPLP
T1 sequence (P41143 whole entry): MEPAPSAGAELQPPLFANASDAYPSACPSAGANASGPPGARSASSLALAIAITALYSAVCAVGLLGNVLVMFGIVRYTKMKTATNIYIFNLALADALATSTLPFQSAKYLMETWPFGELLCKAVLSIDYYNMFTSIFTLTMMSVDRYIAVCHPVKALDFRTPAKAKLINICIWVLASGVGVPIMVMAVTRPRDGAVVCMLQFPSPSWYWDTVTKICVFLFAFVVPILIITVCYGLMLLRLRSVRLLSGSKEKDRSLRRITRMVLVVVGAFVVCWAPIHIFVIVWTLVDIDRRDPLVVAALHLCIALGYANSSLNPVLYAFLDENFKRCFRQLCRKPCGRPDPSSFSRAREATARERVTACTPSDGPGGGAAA
T3 sequence (Q9GZQ6 whole entry): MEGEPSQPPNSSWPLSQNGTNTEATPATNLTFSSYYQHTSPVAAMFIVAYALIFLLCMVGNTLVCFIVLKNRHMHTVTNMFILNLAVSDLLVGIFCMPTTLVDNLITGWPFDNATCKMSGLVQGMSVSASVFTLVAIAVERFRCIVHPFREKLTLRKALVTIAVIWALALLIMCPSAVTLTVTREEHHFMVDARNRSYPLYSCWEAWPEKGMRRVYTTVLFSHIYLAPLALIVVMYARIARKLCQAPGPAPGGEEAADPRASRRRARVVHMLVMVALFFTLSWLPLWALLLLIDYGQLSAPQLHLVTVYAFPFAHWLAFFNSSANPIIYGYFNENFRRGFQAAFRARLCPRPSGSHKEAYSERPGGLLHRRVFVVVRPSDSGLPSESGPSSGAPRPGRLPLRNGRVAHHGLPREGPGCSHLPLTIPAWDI
Chain of Kappa-type opioid receptor (P41145 whole entry): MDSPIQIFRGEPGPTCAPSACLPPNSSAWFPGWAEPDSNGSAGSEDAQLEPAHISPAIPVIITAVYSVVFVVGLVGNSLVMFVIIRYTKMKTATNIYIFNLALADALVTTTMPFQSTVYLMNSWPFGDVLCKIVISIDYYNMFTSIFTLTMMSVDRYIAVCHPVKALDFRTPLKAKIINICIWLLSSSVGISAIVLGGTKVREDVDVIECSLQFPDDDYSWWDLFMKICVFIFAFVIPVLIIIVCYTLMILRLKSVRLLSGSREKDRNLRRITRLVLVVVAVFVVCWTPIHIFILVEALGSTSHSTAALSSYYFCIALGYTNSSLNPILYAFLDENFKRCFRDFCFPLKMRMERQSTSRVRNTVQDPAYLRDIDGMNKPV

| SMILES | ED50 (Mus musculus [1]) [µmol/kg] | MPE (Mus musculus [2]) [%] | EC50 (Mu-type opioid receptor) [nM] | Tlast (Mus musculus [3]) [min] | MPE (Mus musculus [4]) [%] | EC50 [5] [nM] | half-life at 10000 µM [6] [min] | Activity (Mus musculus [7]) | MPE (Mus musculus [8]) [%] | Emax ([9]; filed as agonist) [%] | Emax [10] [%] | EC50 [11] [nM] | EC50 [12] [nM] | Emax [13] [%] | EC50 [14] [nM] | MPE (Mus musculus [15]) [%] | MPE (Mus musculus [16]) [%] | Emax [9] [%] | Ratio ED50 (Mus musculus [17]) | MPE (Mus musculus [18]) [%] |
| --- | --- | --- | --- | --- | --- | --- | --- | --- | --- | --- | --- | --- | --- | --- | --- | --- | --- | --- | --- | --- |
| CN1C(=O)CNC(=O)[C@H](NC(=O)[C@@H](N)Cc2ccc(O)cc2)CCCCNC(=O)C[C@H](C(=O)N2CCC[C@H]2C(=O)N[C@@H](CCC(N)=O)C(=O)N[C@@H](CCCNC(=N)N)C(=O)N[C@@H](Cc2ccccc2)C(N)=O)NC(=O)[C@@H]1Cc1ccccc1 (H-Y[dK]G[NMeF][dD]PQRF-NH2; lactam 2-5) | 0.0201 | 94.1 | 586 | 240 | 92.6 | 581 | 18.7 | inactive | 74.1 | 60.3 | 59 | 528 | 190 | 75.6 | – | – | – | – | – | – |
| CN1C(=O)CNC(=O)[C@@H](NC(=O)[C@@H](N)Cc2ccc(O)cc2)CCCCNC(=O)C[C@H](C(=O)N2CCC[C@H]2C(=O)N[C@@H](CCC(N)=O)C(=O)N[C@@H](CCCNC(=N)N)C(=O)N[C@@H](Cc2ccccc2)C(N)=O)NC(=O)[C@@H]1Cc1ccccc1 (H-YKG[NMeF][dD]PQRF-NH2; lactam 2-5) | 0.0263 | 82.5 | 167 | 240 | 94.1 | 923 | 6.7 | inactive | 70.6 | 62.2 | 62.4 | 104 | 81.5 | 76.2 | – | – | – | – | – | – |
| CN1C(=O)CNC(=O)[C@@H](NC(=O)[C@@H](N)Cc2ccc(O)cc2)CCCCNC(=O)C[C@@H](C(=O)N2CCC[C@H]2C(=O)N[C@@H](CCC(N)=O)C(=O)N[C@@H](CCCNC(=N)N)C(=O)N[C@@H](Cc2ccccc2)C(N)=O)NC(=O)[C@@H]1Cc1ccccc1 (H-YKG[NMeF]DPQRF-NH2; lactam 2-5) | 0.022 | 93.2 | 72.6 | 240 | 93.9 | 28.2 | 9.9 | inactive | 76.3 | 65.7 | 68.1 | 28.9 | 112 | 80.6 | 320 | – | – | – | – | – |
| CN1C(=O)CNC(=O)[C@H](NC(=O)[C@@H](N)Cc2ccc(O)cc2)CCNC(=O)C[C@@H](C(=O)N2CCC[C@H]2C(=O)N[C@@H](CCC(N)=O)C(=O)N[C@@H](CCCNC(=N)N)C(=O)N[C@@H](Cc2ccccc2)C(N)=O)NC(=O)[C@@H]1Cc1ccccc1 (H-Y[dDab]G[NMeF]DPQRF-NH2; lactam 2-5) | 0.0142 | – | 37.9 | 240 | – | 95.1 | 530 | inactive | – | – | 63.2 | 180 | 265 | 73.4 | 71.2 | 80.8 | 74 | 31.2 | 15.2 | 93.8 |
